Several values for one entry are separate records, joined by “and”; a condition that tells them apart may be missing. Identical values can stand only once.
Assays:
human TLR2 = molecular target: T1, human TLR2 (Homo sapiens, UniProt O60603); experiment: Activation of human TLR2 III: HEK-Blue hTLR2 dose response (SEAP reporter); type: cell-based; settings: for optical density (650 nm): screenings 1-3; for stimulatory / agonist activity for hTLR2 (in words) / fold induction at 120 fg/mL / fold induction at 490 fg/mL / fold induction at 1.95 pg/mL / fold induction at 7.81 pg/mL / fold induction at 31.25 pg/mL / fold induction at 0.000125 µg/mL / fold induction at 0.0005 µg/mL: HEK-Blue hTLR2; for fold induction at 120 fg/mL / fold induction at 490 fg/mL / fold induction at 1.95 pg/mL / fold induction at 7.81 pg/mL / fold induction at 31.25 pg/mL / fold induction at 0.000125 µg/mL / fold induction at 0.0005 µg/mL: read-out: Fold Induction (ratio of average induced value to average non-induced value); for EC50: agonism of hTLR2, HEK-Blue hTLR2
T1 construct: expressed in transfected cells; host or cells: HEK-Blue hTLR2 cells
Experimental: (§1) Toll-Like Receptor (TLR) stimulation is tested by assessing NF-KB activation in the TLR expressing cell lines. HEK-Blue h/mTLR2 cells have been stably transfected with human or mouse TLR2 and CD14. The activity of the test articles are tested on human and mouse TLR2, as potential agonists. The test articles are evaluated at seven concentrations and compared to control ligands (see list below). These steps are performed in triplicate.
(§2) A 5 µg/mL working stock was then prepared for each compound from the 20 µg/mL dilution in sterile PBS. Starting from the 5 µg/mL working stock, a series of six 1:4 serial dilutions were made by mixing 100 µL of the previous highest dilution with 300 µL sterile PBS.
(§3) The secreted embryonic alkaline phosphatase (SEAP) reporter is under the control of a promoter inducible by the transcription factor NF-κB. This reporter gene allows the monitoring of signaling through the TLR, based on the activation of NF-κB. In a 96-well plate (200 µL total volume) containing the appropriate cells (50,000 - 75,000 cells/well), 20 µL of the test article or the positive control ligand (HKLC) is added to the wells. The media added to the wells is designed for the detection of NF-κB induced SEAP expression. After a 16-24-hour incubation the optical density (OD) is read at 650 nm on a Molecular Devices SpectraMax 340PC absorbance detector.

[1] = Stability III: accelerated aging at 40° C., 3 or 6 weeks, HPLC recovery; type: physicochemical
Experimental: Recovery of the target compound was assessed by HPLC, and the values as a percentage of the reference sample are reported in Table 14 and in FIG. 5.

mouse TLR2 = molecular target: T2, mouse TLR2 (Mus musculus, UniProt Q9QUN7); experiment: HEK-Blue mTLR2 dose response (SEAP reporter); type: cell-based
T2 construct: expressed in transfected cells; host or cells: HEK-Blue mTLR2 cells
Experimental: as §1, §2, §3

HEK-Blue Null2 cells = experiment: TLR- control cell line HEK-Blue Null2 (control for mouse TLR2); type: cell-based
Experimental: as §3

HEK-Blue Null1 cells = experiment: TLR- control cell line HEK-Blue Null1 (control for human TLR2); type: cell-based
Experimental: as §3

T1 sequence (O60603 21-784): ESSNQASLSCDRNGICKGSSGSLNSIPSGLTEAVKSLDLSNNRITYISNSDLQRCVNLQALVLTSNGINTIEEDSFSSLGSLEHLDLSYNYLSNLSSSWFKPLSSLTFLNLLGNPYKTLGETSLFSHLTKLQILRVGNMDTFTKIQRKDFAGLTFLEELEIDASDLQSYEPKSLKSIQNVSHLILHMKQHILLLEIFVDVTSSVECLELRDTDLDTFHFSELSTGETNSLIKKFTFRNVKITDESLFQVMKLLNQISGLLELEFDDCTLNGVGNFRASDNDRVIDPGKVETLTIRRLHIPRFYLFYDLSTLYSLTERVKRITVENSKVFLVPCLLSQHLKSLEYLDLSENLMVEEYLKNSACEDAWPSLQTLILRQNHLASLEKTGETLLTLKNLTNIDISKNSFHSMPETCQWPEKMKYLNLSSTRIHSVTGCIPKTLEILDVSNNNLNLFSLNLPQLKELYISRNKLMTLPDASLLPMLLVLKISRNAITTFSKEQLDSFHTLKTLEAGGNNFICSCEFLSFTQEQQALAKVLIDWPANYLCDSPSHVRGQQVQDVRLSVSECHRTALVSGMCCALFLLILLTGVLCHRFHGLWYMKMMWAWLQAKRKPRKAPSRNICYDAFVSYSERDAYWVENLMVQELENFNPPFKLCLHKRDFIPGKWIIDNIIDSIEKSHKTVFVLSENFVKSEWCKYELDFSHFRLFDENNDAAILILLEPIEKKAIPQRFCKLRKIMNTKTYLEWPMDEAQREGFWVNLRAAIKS
T1 sequence (Q9Y2C9 32-796 partner): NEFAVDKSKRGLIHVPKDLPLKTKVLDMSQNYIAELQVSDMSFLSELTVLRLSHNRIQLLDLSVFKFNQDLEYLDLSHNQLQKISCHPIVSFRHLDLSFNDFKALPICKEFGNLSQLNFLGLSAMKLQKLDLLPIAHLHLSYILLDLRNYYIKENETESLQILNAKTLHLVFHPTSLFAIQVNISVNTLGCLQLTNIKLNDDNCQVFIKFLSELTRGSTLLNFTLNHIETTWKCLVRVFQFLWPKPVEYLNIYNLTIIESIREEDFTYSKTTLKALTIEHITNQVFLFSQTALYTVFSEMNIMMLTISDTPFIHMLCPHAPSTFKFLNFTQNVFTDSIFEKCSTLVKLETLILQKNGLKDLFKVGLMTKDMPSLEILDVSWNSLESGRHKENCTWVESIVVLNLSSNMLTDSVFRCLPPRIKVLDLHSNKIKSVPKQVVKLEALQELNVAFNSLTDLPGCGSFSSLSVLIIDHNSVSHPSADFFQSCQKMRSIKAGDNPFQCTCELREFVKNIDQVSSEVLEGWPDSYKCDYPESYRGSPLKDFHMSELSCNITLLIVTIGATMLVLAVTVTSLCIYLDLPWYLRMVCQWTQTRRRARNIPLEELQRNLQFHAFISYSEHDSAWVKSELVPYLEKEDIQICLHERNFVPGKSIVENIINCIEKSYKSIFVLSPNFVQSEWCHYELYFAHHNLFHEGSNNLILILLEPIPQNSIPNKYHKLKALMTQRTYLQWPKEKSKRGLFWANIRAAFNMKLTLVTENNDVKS
T2 sequence (Q9QUN7 25-784): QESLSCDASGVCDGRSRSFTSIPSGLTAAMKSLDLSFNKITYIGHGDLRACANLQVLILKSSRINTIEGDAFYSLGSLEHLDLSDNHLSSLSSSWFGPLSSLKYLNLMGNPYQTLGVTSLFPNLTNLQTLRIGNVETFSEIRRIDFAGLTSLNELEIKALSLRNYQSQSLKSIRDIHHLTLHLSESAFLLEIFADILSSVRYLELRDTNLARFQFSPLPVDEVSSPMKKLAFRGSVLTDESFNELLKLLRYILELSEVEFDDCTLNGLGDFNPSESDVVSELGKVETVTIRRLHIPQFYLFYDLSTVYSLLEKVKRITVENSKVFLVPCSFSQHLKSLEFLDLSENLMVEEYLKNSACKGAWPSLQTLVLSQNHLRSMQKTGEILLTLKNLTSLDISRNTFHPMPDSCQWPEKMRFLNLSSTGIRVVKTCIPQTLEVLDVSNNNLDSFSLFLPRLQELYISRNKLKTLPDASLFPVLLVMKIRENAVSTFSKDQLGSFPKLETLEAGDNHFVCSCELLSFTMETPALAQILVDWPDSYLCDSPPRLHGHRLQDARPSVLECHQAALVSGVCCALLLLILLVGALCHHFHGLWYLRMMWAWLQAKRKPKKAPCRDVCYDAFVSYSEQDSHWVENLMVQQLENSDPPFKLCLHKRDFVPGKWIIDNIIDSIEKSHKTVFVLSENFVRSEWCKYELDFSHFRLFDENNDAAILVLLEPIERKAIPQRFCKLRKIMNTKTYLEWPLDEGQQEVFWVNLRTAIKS
T2 sequence (Q9Y2C9 32-796 partner): as the sequence (Q9Y2C9 32-796 partner) above

Average optical density (650 nm) (human TLR2; 0.12 pg/mL) | optical density (650 nm) (human TLR2; 0.12 pg/mL) | Average optical density (650 nm) (human TLR2; 0.49 pg/mL) | optical density (650 nm) (human TLR2; 0.49 pg/mL) | Average optical density (650 nm) (human TLR2; 1.95 pg/mL) | optical density (650 nm) (human TLR2; 1.95 pg/mL) | Average optical density (650 nm) (human TLR2; 7.81 pg/mL) | optical density (650 nm) (human TLR2; 7.81 pg/mL) | Average optical density (650 nm) (human TLR2; 31.25 pg/mL) | optical density (650 nm) (human TLR2; 31.25 pg/mL) | Average optical density (650 nm) (human TLR2; 125 pg/mL) | optical density (650 nm) (human TLR2; 125 pg/mL) | Average optical density (650 nm) (human TLR2; 500 pg/mL) | optical density (650 nm) (human TLR2; 500 pg/mL) | stimulatory / agonist activity for hTLR2 (in words) (human TLR2) | fold induction at 120 fg/mL (human TLR2; 0.12 pg/mL) | fold induction at 490 fg/mL (human TLR2; 0.49 pg/mL) | fold induction at 1.95 pg/mL (human TLR2; 1.95 pg/mL) | fold induction at 7.81 pg/mL (human TLR2; 7.81 pg/mL) | fold induction at 31.25 pg/mL (human TLR2; 31.25 pg/mL) | SMILES | other results
0.823 | 0.826 and 0.869 and 0.774 | 1.342 | 1.256 and 1.364 and 1.406 | 2.018 | 1.994 and 2.061 and 2.000 | 2.562 | 2.569 and 2.545 and 2.571 | 2.744 | 2.820 and 2.720 and 2.691 | 2.814 | 2.928 and 2.800 and 2.713 | 2.759 | 2.722 and 2.765 and 2.791 | stimulatory activity | 18.7 | 25.5 | 28 | 33 | 33.7 | CCCCCCCCCCCCCC[C@@H](C)C(=O)OCC[C@H](CSC[C@H](N)C(=O)N[C@@H](CO)C(=O)NCCOCCOCCOCCOCCOCCOCCOCCOCCOCCOCCOCCOCCOCCOCCOCCOCCOCCOCCOCCOCCOCCOCCOCCOCCOCCOCCOCCOCCC(=O)NCC(N)=O)OC(=O)[C@H](C)CCCCCCCCCCCCCC [Compound B14] | fold induction at 0.000125 µg/mL (human TLR2; 125 pg/mL): 35.2; fold induction at 0.0005 µg/mL (human TLR2; 500 pg/mL): 33.9; EC50 (human TLR2): 0.264 nM; stability under accelerated storage conditions (in words) [1]: excellent stabilities; stimulatory / agonist activity for mTLR2 (in words) (mouse TLR2): stimulatory activity; stimulatory response in HEK-Blue Null2 (mouse) cells (in words) (HEK-Blue Null2 cells): not observed; stimulatory response in HEK-Blue Null1 (human) cells (in words) (HEK-Blue Null1 cells): not observed
0.666 | 0.688 and 0.591 and 0.718 | 1.099 | 1.080 and 1.097 and 1.121 | 1.521 | 1.478 and 1.513 and 1.573 | 1.978 | 1.903 and 1.897 and 2.133 | 2.252 | 2.093 and 2.297 and 2.367 | 2.540 | 2.531 and 2.544 and 2.545 | 2.475 | 2.466 and 2.488 and 2.472 | stimulatory activity | 9.2 | 15.3 | 21.1 | 27.5 | 31.3 | CCCCCCCCCCCCCC[C@H](C)C(=O)OCC[C@H](CSC[C@H](N)C(=O)N[C@@H](CO)C(=O)NCCOCCOCCOCCOCCOCCOCCOCCOCCOCCOCCOCCOCCOCCOCCOCCOCCOCCOCCOCCOCCOCCOCCOCCOCCOCCOCCOCCOCCC(=O)NCC(N)=O)OC(=O)[C@@H](C)CCCCCCCCCCCCCC [Compound B16] | fold induction at 0.000125 µg/mL (human TLR2; 125 pg/mL): 35.3; fold induction at 0.0005 µg/mL (human TLR2; 500 pg/mL): 34.4; EC50 (human TLR2): 0.504 nM; stability under accelerated storage conditions (in words) [1]: excellent stabilities; stimulatory / agonist activity for mTLR2 (in words) (mouse TLR2): stimulatory activity; stimulatory response in HEK-Blue Null2 (mouse) cells (in words) (HEK-Blue Null2 cells): not observed; stimulatory response in HEK-Blue Null1 (human) cells (in words) (HEK-Blue Null1 cells): not observed
